{"source": "paper PMC10818749", "about": "“Toxicity Studies of Cardiac-Targeting Peptide Reveal a Robust Safety Profile” (Pharmaceutics, 2024)", "key": {"GABAA": {"test_system": "GABAA", "assay": "GABAA ion channel assay", "assay_type": "cell-based", "conditions": "FLIPR Tetra, up to 30 µM, read-out: RC50 (the source's name)", "procedure": "(§1) Ion Channel Assays: Cell lines were grown, plated, and loaded with 1× loading buffer containing 1× dye and 2.5 mM freshly prepared probenecid. Assays were performed, and activity was measured using a FLIPR Tetra. Percent of activation and percent of inhibition were calculated to determine agonist and antagonist activity, respectively. […]\nin complementation with EA generating a unit of active β-gal and based assay for the detection of dopamine, norepinephrine or sero-production of a chemiluminescent signal upon the addition of Path- tonin transporter activity in cells expressing these transporters. The Hunter detection reagents. kit employs a fluorescent substrate that mimics the biogenic amine neurotransmitters that are taken into the cell through these specific transporters, resulting in increased intracellular fluorescence inten-sity. […]\nKINOMEscan® Assay fluorescence for improved signal/noise ratio. […]\nCompounds that bind the kinase active site and directly (sterically) be monitored within a single experiment. or indirectly (allosterically) prevent kinase binding to the immobi-lized ligand, will reduce the amount of kinase captured on the solid Calcium Assay […]\nkinase have no effect on the amount of kinase captured on the of changes in intracellular calcium. […] In a similar manner, dissociation con- an increase of dye fluorescence. […]"}, "NAV1.5": {"molecular_target": "NAV1.5 (Homo sapiens, UniProt Q14524)", "sequence (Q14524 whole entry)": "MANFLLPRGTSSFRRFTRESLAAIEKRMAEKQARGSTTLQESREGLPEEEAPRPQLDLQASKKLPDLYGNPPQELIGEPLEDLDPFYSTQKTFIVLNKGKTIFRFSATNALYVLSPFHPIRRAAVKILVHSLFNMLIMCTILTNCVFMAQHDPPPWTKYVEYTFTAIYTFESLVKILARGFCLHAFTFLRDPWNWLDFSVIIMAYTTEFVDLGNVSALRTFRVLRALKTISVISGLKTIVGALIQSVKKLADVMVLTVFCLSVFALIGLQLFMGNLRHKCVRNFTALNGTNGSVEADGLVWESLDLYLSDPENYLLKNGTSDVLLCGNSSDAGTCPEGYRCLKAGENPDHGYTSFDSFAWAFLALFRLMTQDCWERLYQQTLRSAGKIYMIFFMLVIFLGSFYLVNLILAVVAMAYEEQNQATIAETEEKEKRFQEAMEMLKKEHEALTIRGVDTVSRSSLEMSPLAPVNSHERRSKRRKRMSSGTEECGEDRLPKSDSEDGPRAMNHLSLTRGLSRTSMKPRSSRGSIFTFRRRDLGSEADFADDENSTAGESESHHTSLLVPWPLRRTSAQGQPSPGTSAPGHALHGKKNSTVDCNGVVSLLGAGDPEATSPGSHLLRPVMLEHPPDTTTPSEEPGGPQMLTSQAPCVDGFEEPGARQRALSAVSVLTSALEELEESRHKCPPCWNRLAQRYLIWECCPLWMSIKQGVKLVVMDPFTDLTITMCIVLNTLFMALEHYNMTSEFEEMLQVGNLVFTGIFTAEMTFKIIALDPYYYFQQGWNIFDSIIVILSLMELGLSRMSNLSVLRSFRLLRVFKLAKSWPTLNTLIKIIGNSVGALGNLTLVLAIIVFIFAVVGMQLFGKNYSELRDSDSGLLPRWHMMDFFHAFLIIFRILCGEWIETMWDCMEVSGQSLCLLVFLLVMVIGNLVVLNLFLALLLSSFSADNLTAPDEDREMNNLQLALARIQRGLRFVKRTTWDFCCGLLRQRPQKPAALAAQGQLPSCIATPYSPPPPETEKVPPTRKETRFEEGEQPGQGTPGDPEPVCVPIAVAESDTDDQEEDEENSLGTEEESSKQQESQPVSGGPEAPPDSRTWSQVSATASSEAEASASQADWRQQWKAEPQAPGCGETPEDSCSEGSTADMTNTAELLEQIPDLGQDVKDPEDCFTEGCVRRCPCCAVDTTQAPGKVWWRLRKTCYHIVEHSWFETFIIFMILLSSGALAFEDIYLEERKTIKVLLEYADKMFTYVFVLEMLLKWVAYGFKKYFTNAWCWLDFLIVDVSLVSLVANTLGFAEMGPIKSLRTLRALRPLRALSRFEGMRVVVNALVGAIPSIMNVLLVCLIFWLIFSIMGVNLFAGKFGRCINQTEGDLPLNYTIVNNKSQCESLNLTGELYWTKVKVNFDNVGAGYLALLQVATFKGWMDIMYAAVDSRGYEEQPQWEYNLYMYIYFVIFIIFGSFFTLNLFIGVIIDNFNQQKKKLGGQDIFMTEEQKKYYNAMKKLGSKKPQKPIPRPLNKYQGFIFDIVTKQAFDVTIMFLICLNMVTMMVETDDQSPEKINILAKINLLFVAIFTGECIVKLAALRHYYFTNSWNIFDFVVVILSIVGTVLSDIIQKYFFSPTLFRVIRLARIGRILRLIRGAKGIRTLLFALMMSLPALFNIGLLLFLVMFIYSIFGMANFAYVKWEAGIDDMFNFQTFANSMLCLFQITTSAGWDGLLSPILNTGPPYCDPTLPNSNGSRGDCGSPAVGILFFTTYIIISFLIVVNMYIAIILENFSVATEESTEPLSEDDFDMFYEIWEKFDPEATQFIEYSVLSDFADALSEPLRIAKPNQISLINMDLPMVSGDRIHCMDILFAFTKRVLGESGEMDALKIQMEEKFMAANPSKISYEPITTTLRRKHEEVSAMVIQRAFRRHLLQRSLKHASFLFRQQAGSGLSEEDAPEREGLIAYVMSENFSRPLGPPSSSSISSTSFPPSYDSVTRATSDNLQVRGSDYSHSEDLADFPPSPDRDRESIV", "assay": "in vitro", "assay_type": "cell-based", "conditions": "up to 30 µM", "procedure": "as §1\nThe KINOMEscan screening platform employs a novel and propri- Membrane Potential Assay etary active site-directed competition binding assay to quantitatively The FLIPR® Membrane Potential Assay Kit is used which utilizes a pro-measure interactions between test compounds and the kinases. prietary fluorescent indicator dye in combination with a quencher to This robust and reliable assay technology affords investigators the reflect real-time membrane potential changes associated with ion ability to extensively annotate compounds with accurate, precise channel activation and ion transporter proteins. […]\nCompounds that bind the kinase active site and directly (sterically) be monitored within a single experiment. […]\nUpon stimulation, […]\na quantitative, precise and ultra-sensitive qPCR method that detects the receptor signals release of intracellular calcium, which results in the associated DNA label (D). In a similar manner, dissociation con- an increase of dye fluorescence. […]\n1. Compound activity was measured on a FLIPR Tetra (MDS). […]"}}, "note": "Ends that are not written are not given here.", "data": [{"sequence": "APWHLSSQYSRT [CTP]", "values": [{"measurement": "EC50", "setting": "GABAA; agonist (opener)", "value": "> 30", "unit": "µM"}, {"measurement": "IC50", "setting": "GABAA; antagonist (blocker)", "value": "> 30", "unit": "µM"}, {"measurement": "blocking or activation", "setting": "NAV1.5; SAFETYscan ion channel assay", "value": "no significant blocking or activation"}, {"measurement": "IC50", "setting": "NAV1.5; blocker, FLIPR Tetra, read-out: RC50 (the source's name)", "value": "> 30", "unit": "µM"}]}]}
